The record followed here is patent US8173654B2, “Triazolopyridazine compounds” (Janssen Pharmaceutica N.V., priority 2005, dated 2012).

The target of one assay is c-Met (Homo sapiens, UniProt P08581). As to the kind of experiment: Cell based ELISA assay for HGF stimulated c-Met phosphorylation in S114 cells. Further details: expressed in transfected cells; host or cells: S114 (murine NIH 3T3 derived). The note with it: read-out: c-Met Cell ELISA IC-50.
A further assay relates to HepG2 cells. Kind of assay: HepG2 cellular scatter assay (HGF-induced, RT-CES impedance). It counts as cell-based. The settings on record: Homo sapiens, 40 ng/ml HGF. The source says:
Human Growth Factor (HGF) and its receptor (c-Met) are involved in cellular motility. Indeed HGF was also identified as Scatter Factor (SF), based on its powerful motility effect on certain cell types. Cellular motility is critical for pathological processes of oncologic disease, most importantly, the establishment of metastatic lesions distant from the primary tumor and formation of new blood vessels (angiogenesis). One therapeutic hypothesis is that this movement of cell types may be blunted or eliminated by the use of c-Met kinase inhibitors. (See: Jiang, W. C, Martin, T. A., Parr, C., Davies, G., Matsumoto, K. and Nakamura, T. Critical Reviews in Oncology/Hematology 53 (2005) 35-69. and references cited therein.) It should also be noted that cellular motility, especially with regard to angiogenesis, is important in other disease states.
Cellular scatter was measured with a Real-Time Cell Electronic Sensing system (RT-CES), from ACEA Biosciences Inc. (San Diego, Calif.). The RT-CES system uses specialized RT-ACE microtiter plates (cat:RCD96, ACEA Biosciences Inc.) to non-invasively quantify cellular status in real-time. The interaction of cells with the surface of the plates, which are integrated with microelectronic sensor arrays, leads to the generation of a cell-electrode impedance response. A higher impedance value indicates more cell attachment and thus less cellular scatter.
50 μl of Assay Media (MEM supplemented with 10% FBS, 2 mM L-glutamine, 1.5 g/L sodium bicarbonate, 1 mM sodium pyruvate, and 0.1 mM non-essential amino acids) was added into 96-well RT-ACE plates and recorded for 30 min on the RT-CES. 50 μl of HepG2 cells (cat: HB-8065, ATCC) were added into each well ([…]). The plate was read in RT-CES and incubated for 20-24 hours. After the 20-24 hours incubation, 50 μl of Assay Media containing different concentrations of testing compounds was added into each well and incubated for 1 hour. Finally, 50 μl of Assay Media containing 160 ng/ml of HGF was added into each well (40 ng/ml in 200 μl). The plate was incubated and read in the RT-CES for 20-24 hours, with a record time every 15 minutes. The positive control was HGF without compounds and negative control was no-HGF without compound. All determinations were performed in duplicate wells and IC50 values were calculated using GraphPad Prism software (GraphPad Software; San Diego, Calif.).

The test system of another assay is S114 tumors. Kind of assay: S114 tumor model. In kind it is in vivo, athymic nude mice. The settings on record: 100 mg/kg p.o. q.d., four consecutive days, five mice. The protocol:
Female athymic nude mice were inoculated subcutaneously in the left inguinal region of the thigh with 5×10^6 S114 cells in a delivery volume of 0.1 mL. Tumors were allowed to grow to for five days. Mice were dosed orally at 100 mg/kg compound in 20% HPBCD or with vehicle (20% HPBCD, control group). Dosing was continued for 4 consecutive days. On the day of study termination, tumors were immediately excised intact and weighed, with final tumor wet weight (grams) serving as a primary efficacy endpoint.
Female athymic nude mice (CD-1, nu/nu, 9-10 weeks old) were obtained from Charles River Laboratories (Wilmington, Mass.) and were maintained according to NIH standards. All mice were group housed (5 mice/cage) under clean-room conditions in sterile micro-isolator cages on a 12-hour light/dark cycle in a room maintained at 21-22° C. and 40-50% humidity. […]
The murine NIH 3T3 derived cell line S114, which has been engineered to over-express both Human Growth Factor (HGF) and the human c-Met receptor, was propagated in DMEM media (Life Technologies, Bethesda, Md.). Immediately prior to injection, cells were washed counted and resuspended in PBS. […]
Mice were dosed orally at 100 mg/kg compound in 20% HPBCD or with vehicle (20% HPBCD, control group). […] Body weight was measured at the end of the study and a loss of body weight >10% was used as an indication of lack of compound tolerability. […]

Sequence of c-Met (P08581 25-1390): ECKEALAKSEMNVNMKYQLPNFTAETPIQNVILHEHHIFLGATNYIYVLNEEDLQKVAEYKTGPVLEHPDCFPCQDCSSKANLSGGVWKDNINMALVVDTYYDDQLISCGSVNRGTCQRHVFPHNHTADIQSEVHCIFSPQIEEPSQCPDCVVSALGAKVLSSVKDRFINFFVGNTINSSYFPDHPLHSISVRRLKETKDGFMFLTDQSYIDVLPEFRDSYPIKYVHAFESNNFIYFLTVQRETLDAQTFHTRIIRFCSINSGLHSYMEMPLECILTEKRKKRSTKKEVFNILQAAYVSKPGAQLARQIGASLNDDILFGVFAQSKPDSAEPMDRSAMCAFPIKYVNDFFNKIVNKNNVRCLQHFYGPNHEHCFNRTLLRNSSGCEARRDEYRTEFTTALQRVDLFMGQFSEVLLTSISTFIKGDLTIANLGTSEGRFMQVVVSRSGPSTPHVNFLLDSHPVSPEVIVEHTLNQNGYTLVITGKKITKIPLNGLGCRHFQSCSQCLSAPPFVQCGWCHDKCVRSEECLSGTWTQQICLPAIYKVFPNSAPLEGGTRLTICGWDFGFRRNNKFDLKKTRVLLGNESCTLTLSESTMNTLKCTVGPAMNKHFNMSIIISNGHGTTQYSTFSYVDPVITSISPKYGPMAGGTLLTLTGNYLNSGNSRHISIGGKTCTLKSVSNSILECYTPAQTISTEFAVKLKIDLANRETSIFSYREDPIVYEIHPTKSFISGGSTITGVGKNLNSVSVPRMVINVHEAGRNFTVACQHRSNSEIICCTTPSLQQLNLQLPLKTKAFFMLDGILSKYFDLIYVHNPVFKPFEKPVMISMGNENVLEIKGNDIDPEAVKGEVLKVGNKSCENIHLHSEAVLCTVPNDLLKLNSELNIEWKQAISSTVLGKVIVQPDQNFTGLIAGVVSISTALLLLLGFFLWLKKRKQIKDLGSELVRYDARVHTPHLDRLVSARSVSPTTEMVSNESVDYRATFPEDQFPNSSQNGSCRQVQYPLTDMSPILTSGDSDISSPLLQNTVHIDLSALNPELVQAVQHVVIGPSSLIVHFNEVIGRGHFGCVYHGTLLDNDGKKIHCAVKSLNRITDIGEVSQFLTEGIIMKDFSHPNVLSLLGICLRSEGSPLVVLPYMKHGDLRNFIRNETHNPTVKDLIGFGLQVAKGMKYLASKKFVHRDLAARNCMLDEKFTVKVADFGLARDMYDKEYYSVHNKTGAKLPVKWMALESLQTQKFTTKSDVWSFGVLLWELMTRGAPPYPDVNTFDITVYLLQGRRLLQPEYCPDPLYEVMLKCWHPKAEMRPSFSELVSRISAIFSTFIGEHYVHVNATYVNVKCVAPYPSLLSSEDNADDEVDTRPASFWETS

With `Cn1cc(-c2ccc3nnc(C(F)(F)c4ccc5ncccc5c4)n3n2)cn1` [Example 61, 6-{Difluoro-[6-(1-methyl-1H-pyrazol-4-yl)-[1,2,4]triazolo[4,3-b]pyridazin-3-yl]-methyl}-quinoline], the IC50 on c-Met was found to be 0.002 µM. In the assay with HepG2 cells, the IC50 is 0.106 µM. In the assay on S114 tumors, the “mice with tumors regressed to non-palpable, non-detectable tumors by the end of the study” value is “three of the five mice” and the “regression of S114 tumors” value was “regressed in all five mice”.
